Measured values taken from the supplement of paper PMC10307832.

Legend:
Test in all cases: relative viability (nuclei count vs DMSO), 5 days (fraction); higher = more cells survive
Dovitinib + Navitoclax = compound: CN1CCN(c2ccc3nc(-c4c(N)c5c(F)cccc5[nH]c4=O)[nH]c3c2)CC1 [Dovitinib] + CC1(C)CCC(c2ccc(Cl)cc2)=C(CN2CCN(c3ccc(C(=O)NS(=O)(=O)c4ccc(N[C@H](CCN5CCOCC5)CSc5ccccc5)c(S(=O)(=O)C(F)(F)F)c4)cc3)CC2)C1 [Navitoclax] (partner 0.5 µM)
Procedure, shortened: (§1)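 Relative viability divides the nuclei count in treated wells by that in vehicle wells. Lung cancer cell lines were seeded in 1536-well plates, dosed by pin tool the next day, and fixed and stained after 5 days in one step with final 0.05% Triton X-100, 1% formaldehyde and 1 ug/ml Hoechst. Dosing was a single drug or a fixed anchor-drug dose plus five library-drug doses (not always all listed) in √10 steps, and values are medians of duplicate plates imaged at 4×.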

Dovitinib + Trametinib = compound: CN1CCN(c2ccc3nc(-c4c(N)c5c(F)cccc5[nH]c4=O)[nH]c3c2)CC1 [Dovitinib] + CC(=O)Nc1cccc(-n2c(=O)n(C3CC3)c(=O)c3c(Nc4ccc(I)cc4F)n(C)c(=O)c(C)c32)c1 [Trametinib] (partner 0.02 µM)
Procedure, shortened: as §1

Dovitinib + Pemetrexed = compound: CN1CCN(c2ccc3nc(-c4c(N)c5c(F)cccc5[nH]c4=O)[nH]c3c2)CC1 [Dovitinib] + Nc1nc2[nH]cc(CCc3ccc(C(=O)N[C@@H](CCC(=O)O)C(=O)O)cc3)c2c(=O)[nH]1 [Pemetrexed] (partner 0.2 µM)
Procedure, shortened: as §1

Dovitinib + Phenformin = compound: CN1CCN(c2ccc3nc(-c4c(N)c5c(F)cccc5[nH]c4=O)[nH]c3c2)CC1 [Dovitinib] + N=C(N)NC(=N)NCCc1ccccc1 [Phenformin] (partner 250 µM)
Procedure, shortened: as §1

Cell Line	relative viability (Dovitinib + Navitoclax; first compound 0.02 µM)	relative viability (Dovitinib + Navitoclax; first compound 0.06325 µM)	relative viability (Dovitinib + Navitoclax; first compound 0.2 µM)	relative viability (Dovitinib + Navitoclax; first compound 0.6325 µM)	relative viability (Dovitinib + Navitoclax; first compound 2 µM)	relative viability (Dovitinib + Trametinib; first compound 0.02 µM)	relative viability (Dovitinib + Trametinib; first compound 0.06325 µM)	relative viability (Dovitinib + Trametinib; first compound 0.2 µM)	relative viability (Dovitinib + Trametinib; first compound 0.6325 µM)	relative viability (Dovitinib + Trametinib; first compound 2 µM)	relative viability (Dovitinib + Pemetrexed; first compound 0.02 µM)	relative viability (Dovitinib + Pemetrexed; first compound 0.06325 µM)	relative viability (Dovitinib + Pemetrexed; first compound 0.2 µM)	relative viability (Dovitinib + Pemetrexed; first compound 0.6325 µM)	relative viability (Dovitinib + Pemetrexed; first compound 2 µM)	relative viability (Dovitinib + Phenformin; first compound 0.02 µM)	relative viability (Dovitinib + Phenformin; first compound 0.06325 µM)	relative viability (Dovitinib + Phenformin; first compound 0.2 µM)	relative viability (Dovitinib + Phenformin; first compound 0.6325 µM)	relative viability (Dovitinib + Phenformin; first compound 2 µM)
NCI-H838	1.11	1.19	1.17	1.22	1.11	0.514	0.499	0.487	0.477	0.543	0.262	0.277	0.229	0.234	0.265	0.553	0.627	0.74	0.62	0.662
SW 1573	1.03	0.934	1.02	0.97	1	0.579	0.617	0.563	0.551	0.592	0.853	0.859	0.858	0.868	0.861	0.355	0.413	0.473	0.282	0.359
PC-14	0.998	1.08	1	0.988	0.939	0.743	0.795	0.822	0.696	0.86	0.128	0.134	0.121	0.141	0.132	0.657	0.563	0.553	0.542	0.765
LK-2	0.995	0.896	0.876	0.766	0.767	0.758	0.751	0.784	0.809	0.585	0.309	0.274	0.287	0.342	0.265	0.539	0.306	0.38	0.486	0.342
COR-L23	0.962	1.19	1.02	1.05	1.07	0.568	0.641	0.601	0.532	0.628	0.194	0.211	0.2	0.208	0.212	0.416	0.467	0.478	0.455	0.507
LCLC-103H						0.683	0.723	0.622	0.556	0.667	0.494	0.457	0.475	0.434	0.459	0.357	0.331	0.336	0.345	0.305
ABC-1																0.211	0.317	0.243	0.237	0.204
NCI-H358						0.156	0.144	0.154	0.19	0.143	0.169	0.171	0.186	0.18	0.176	0.291	0.357	0.408	0.317	0.319
NCI-H1563											0.692	0.922	0.933	0.913	0.829	0.591	0.669	0.665	0.656	0.664
EBC-1	0.475	0.38	0.421	0.384	0.55															
Calu-6	0.828	0.784	0.828	0.813	0.782															
